Reference: patent US20260199350A1, “FLAVONES, QUINOLINONES, QUINAZOLINONES, AND AURONES, AND USES IN CK2-MEDIATED DISEASES” (Salk Institute for Biological Studies, priority 2022, published 2026)
Converted amounts (≈) assume the structure as drawn. Like-named read-outs stand apart in the source and are kept apart here.

Experiments:
NF-κB = assay: NF-κB-Luciferase reporter assay in THP-1 NF-κB-Lucia cells; format: cell-based, human; conditions: for IC50: Homo sapiens, THP-1, FIG. 5B, read-out: IC50 in THP-1 monocyte NF-κB-Luciferase reporter cells; for SAR summary: activity in NF-κB reporter assay and for CK2 kinase inhibition: at 20 μM, FIG. 5A, some values sourced from Baier et al. (2017) and Lolli et al. (2012)
Description: NF-κB-Luciferase reporter assay. THP-1 NF-κB-Lucia cells were plated at 10,000 cells per well with 10 ng/mL PMA. Three days later, media was removed and replaced with media containing LPS (1 μg/mL) and dilution series of compounds in flat bottom clear 96-well plates for 24 hours. A day later, 20 μL of media was transferred to a 96-well white plate and 50 μL of QuantiLuc Gold reagent (InvivoGen rep-qlcg5) was added per well; plate was mixed in the plate reader and luminescence was read using a Promega GloMax Reader.

[1] = system: IL-6, IL-8, TNF-α, and MCP-1; assay: Flow cytometry assay of cytokine production in HCA; format: cell-based, human; conditions: 20 μM compound, 10 ng/mL IL1-β
Description: Flow cytometry. For each well of HCA in a 6-well plate, 2 mL of fresh media with GolgiPLUG (BD #555029, 1:1000) and GolgiSTOP (BD #554724, 1:1000) with 20 μM compound or vehicle (DMSO) and IL1b 10 ng/mL or DPBS was added. The cells were incubated for 5 h at 37° C. Cells were collected with TrypLE and plated into a 96-well V-bottom plate for staining. The plate was centrifuged for 5 min, 1300 rpm, 4° C. to pellet cells, which were subsequently resuspended in 100 μL DPBS with 1 μL Zombie Violet (Biolegend #4231 13) and 5 μL Human Trustain FC block (Biolegend #422302) per well for 15 min at room temperature in the dark. The plate was centrifuged, supernatant was aspirated, and the cells were washed with 100 μL/well DPBS. Cells were fixed with 100 μL/well of Cytofix/Cytoperm (BD) for 20 min at 4° C. The plate was centrifuged, supernatant was aspirated, and cells were resuspended in 100 μL Permwash (BD) and incubated for 15 min at 4° C. The plate was centrifuged, supernatant was aspirated, and cells were incubated with 100 μL/well of Ab mix or isotype mix in Permwash (see below) for 20 min at 4° C., followed by centrifugation and 2× PermWash washes. The cells were resuspended in 100 μL DPBS and transferred to FACS tubes containing 200 ul of PBS (total volume per tube 300 μL) for analysis on FACS Analyzers (LSRII or Fortessa).
A flow cytometry-based assay was used to assess the anti-inflammatory activity of several natural flavonoid compounds (FIG. 1A) and build corresponding structure-activity relationships. Primary human cerebellar astrocytes (HCA) were co-treated with 20 μM of each compound or vehicle (DMSO), 10 ng/mL IL1-β, and a protein transport inhibitor for 6 hours, and then processed for intracellular staining of pro-inflammatory cytokines IL-6, IL-8, TNF-α, and MCP-1. The presence of a C2-C3 double bond was the predominant determining factor for anti-inflammatory activity. […] There was no cytotoxicity associated with flavone treatment (FIG. 1E).

CK2A1 = biological target: T1, CK2A1 (Homo sapiens, UniProt P68400); assay: Radiometric kinase assay (Eurofins), CK2A1; format: biochemical
T1 construct: purchased Eurofins
T1 sequence (P68400 whole entry): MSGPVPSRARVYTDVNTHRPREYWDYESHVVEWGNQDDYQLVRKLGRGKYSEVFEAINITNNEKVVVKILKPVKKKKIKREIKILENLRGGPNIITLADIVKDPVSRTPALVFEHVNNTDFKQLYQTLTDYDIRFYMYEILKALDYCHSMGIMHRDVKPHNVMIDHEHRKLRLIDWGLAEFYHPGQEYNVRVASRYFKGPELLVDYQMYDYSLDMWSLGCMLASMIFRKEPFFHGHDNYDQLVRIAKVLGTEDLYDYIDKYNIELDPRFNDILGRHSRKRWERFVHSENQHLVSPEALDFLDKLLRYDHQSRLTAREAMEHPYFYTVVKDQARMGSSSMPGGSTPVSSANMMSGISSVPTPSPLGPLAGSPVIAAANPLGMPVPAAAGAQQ
Text: FIGS. 4A-4F characterize flavones for in vitro and in-cell CK2 inhibition. […] Representative of two independent experiments. […] Nonlinear fit was used to calculate IC50. […] Nonlinear fit was used to calculate IC50. […] Nonlinear fit was used to calculate IC50. […] Normalized to DMSO, data are representative of three independent experiments.
(§1) • ^1Radiometric kinase assay from Eurofins. Performed in astrocytes with a Promega Lumit IL-6 kit.

CK2A2 = biological target: T2, CK2A2 (Homo sapiens, UniProt P19784); assay: Radiometric kinase assay (Eurofins), CK2A2; format: biochemical
T2 construct: purchased Eurofins
T2 sequence (P19784 whole entry): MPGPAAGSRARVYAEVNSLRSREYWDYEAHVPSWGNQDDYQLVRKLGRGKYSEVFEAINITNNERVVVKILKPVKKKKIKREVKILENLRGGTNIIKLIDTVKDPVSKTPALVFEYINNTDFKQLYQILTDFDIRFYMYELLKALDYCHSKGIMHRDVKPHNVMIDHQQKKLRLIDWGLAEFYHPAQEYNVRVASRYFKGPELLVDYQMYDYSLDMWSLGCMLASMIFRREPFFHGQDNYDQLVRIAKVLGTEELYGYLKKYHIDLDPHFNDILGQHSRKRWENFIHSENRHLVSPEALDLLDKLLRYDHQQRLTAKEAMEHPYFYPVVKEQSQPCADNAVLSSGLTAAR
Text: as §1

IL-6 secretion = IL-6 secretion assay in astrocytes (Promega Lumit IL-6 kit); format: cell-based, human; conditions: Homo sapiens, Astrocyte, read-out: IL6-Inhib.
Description: IL-6 secretion assay. HCAs were plated at 20,000 cells per well in white clear bottom 96-well plates. Two to three days later, media was removed and replaced with media containing 10 ng/mL IL1B and compound dilution series. Five hours later, plates were processed using the Lumit IL-6 Assay Kit (Promega W6030) according to the manufacturer's instructions.
• ^1Radiometric kinase assay from Eurofins. Performed in astrocytes with a Promega Lumit IL-6 kit. A series of halogenated flavones was generated and assayed (Table 3).

Aqueous solubility = format: physicochemical
[2] = Table 11, aurones, read-out: CK2A1 RAD IC50
[3] = Table 11, aurones, read-out: CK2A2 RAD IC50
[4] = Table 11, read-out: Aqueous Solubility
[5] = Table 3, halogenated flavones, read-out: CK2A1 RAD IC50
[6] = Table 3, halogenated flavones, read-out: CK2A2 RAD IC50
[7] = aqueous (not further specified), Table 3, read-out: Aqueous Solubility
[8] = Table 8, quinazolinones, read-out: CK2A1 RAD IC50
[9] = Table 8, quinazolinones, read-out: CK2A2 RAD IC50
[10] = aqueous medium (not further specified), Table 8, read-out: Aqueous Solubility
[11] = Table 10, aurones, read-out: CK2A1 IC50
[12] = Table 10, aurones, read-out: CK2A2 IC50

O=c1c(O)c(-c2ccc(O)c(O)c2)oc2cc(O)cc(O)c12 [quercetin]
IC50 (NF-κB): < 4000 nM | SAR summary: activity in NF-κB reporter assay and for CK2 kinase inhibition (NF-κB): active | IL1-β-induced IL-6, IL-8, TNF-α, MCP-1 cytokine upregulation [1]: strong suppressive activity

O=c1cc(-c2ccccc2)oc2cc(O)cc(O)c12 [chrysin]
Activity in THP-1-NF-κB-Lucia monocytes (NF-κB; FIG. 4D): No activity

O=c1c(O)c(-c2ccc(O)cc2)oc2cc(O)cc(O)c12 [kaempferol]
IC50 (NF-κB): < 4000 nM | SAR summary: activity in NF-κB reporter assay and for CK2 kinase inhibition (NF-κB): active | IL1-β-induced IL-6, IL-8, TNF-α, MCP-1 cytokine upregulation [1]: strong suppressive activity

COc1ccc2c(c1Br)O/C(=C\c1ccc(O)cc1Cl)C2=O [JKT.818A]
IC50 (CK2A1; [2]): > 5000 nM | IC50 (CK2A2; [3]): > 5000 nM | IC50 (IL-6 secretion; Table 11): > 10000 nM | solubility (Aqueous solubility; [4]): < 0.01 µM

COc1c(Br)cc2c(=O)cc(-c3ccc(O)c(Cl)c3)oc2c1Br [JKT.748A]
IC50 (CK2A1; [5]): 24 nM | IC50 (CK2A2; [6]): 9 nM | IC50 (IL-6 secretion; Table 3): 3900 nM | solubility (Aqueous solubility; [7]): 24.3 µM (≈ 11.2 µg/mL)

COc1c(Br)cc2c(=O)cc(-c3cc(F)c(O)c(F)c3)oc2c1Br [JKT.753A]
IC50 (CK2A1; [5]): > 5000 nM | IC50 (CK2A2; [6]): 1850 nM | IC50 (IL-6 secretion; Table 3): > 10000 nM | solubility (Aqueous solubility; [7]): 109 µM (≈ 50.5 µg/mL)

O=c1cc(-c2ccc(O)c(Br)n2)oc2c(Br)cc(Br)cc12 [JKT.844A]
IC50 (CK2A1; Table 4, read-out: CK2A1 RAD IC50): 265 nM | IC50 (CK2A2; Table 4, read-out: CK2A2 RAD IC50): 201 nM | IC50 (IL-6 secretion; Table 4): 8000 nM | solubility (Aqueous solubility; Table 4, read-out: Aqueous Solubility): 148 µM (≈ 70.2 µg/mL)

O=c1[nH]c(-c2cc(F)c(O)c(F)c2)nc2c(Br)cccc12 [JKT.830A]
IC50 (CK2A1; [8]): 866 nM | IC50 (CK2A2; [9]): 1210 nM | IC50 (IL-6 secretion; Table 8): > 10000 nM | solubility (Aqueous solubility; [10]): 171 µM (≈ 60.4 µg/mL)

O=C1/C(=C/c2ccc(O)c(I)c2)Oc2c(Br)cc(Br)cc21 [JKT.728A]
IC50 (CK2A1; [2]): 81 nM | IC50 (CK2A2; [3]): 70 nM | IC50 (IL-6 secretion; Table 11): 1700 nM | solubility (Aqueous solubility; [4]): 17.7 µM (≈ 9.24 µg/mL)

COc1ccc2c(c1Br)O/C(=C\c1cc(Cl)c(O)c(Cl)c1)C2=O [JKT.824A]
IC50 (CK2A1; [2]): 447 nM | IC50 (CK2A2; [3]): 140 nM | IC50 (IL-6 secretion; Table 11): 10100 nM | solubility (Aqueous solubility; [4]): > 200 µM

O=c1cc(-c2ccc(O)c(I)c2)oc2c(Br)cc(Br)cc12 [JKT.724A]
IC50 (CK2A1; [5]): 19 nM | IC50 (CK2A2; [6]): 7 nM | IC50 (IL-6 secretion; Table 3): 3800 nM | solubility (Aqueous solubility; [7]): 11.2 µM (≈ 5.85 µg/mL)

COc1cc(-c2nc3c(Br)cccc3c(=O)[nH]2)ccc1O [JKT.832A]
IC50 (CK2A1; [8]): 3940 nM | IC50 (CK2A2; [9]): > 5000 nM | IC50 (IL-6 secretion; Table 8): 10500 nM | solubility (Aqueous solubility; [10]): 61 µM (≈ 21.2 µg/mL)

O=c1[nH]c(-c2ccc(O)c(C(F)(F)F)c2)nc2c(Cl)cc(Cl)cc12 [JKT.809A]
IC50 (CK2A1; [8]): 82 nM | IC50 (CK2A2; [9]): > 5000 nM | IC50 (IL-6 secretion; Table 8): > 10000 nM | solubility (Aqueous solubility; [10]): < 0.01 µM

O=c1cc(-c2ccc(O)c(Br)c2)oc2c(Br)cccc12 [JKT.744B]
IC50 (CK2A1; [5]): 13 nM | IC50 (CK2A2; [6]): 17 nM | IC50 (IL-6 secretion; Table 3): 3700 nM | solubility (Aqueous solubility; [7]): 5 µM (≈ 1.98 µg/mL)

O=c1c(O)c(-c2ccc(O)c(O)c2)oc2cc(O)ccc12 [fisetin]
IC50 (NF-κB): < 4000 nM | SAR summary: activity in NF-κB reporter assay and for CK2 kinase inhibition (NF-κB): active | IL1-β-induced IL-6, IL-8, TNF-α, MCP-1 cytokine upregulation [1]: strong suppressive activity

COc1ccc2c(=O)cc(-c3ccc(O)c(Br)c3)oc2c1Br [JKT.780A]
IC50 (CK2A1; [5]): 9 nM | IC50 (CK2A2; [6]): 25 nM | IC50 (IL-6 secretion; Table 3): > 10000 nM | solubility (Aqueous solubility; [7]): < 0.01 µM

O=c1[nH]c(-c2ccc(O)c(Br)c2)nc2c(Br)cc(Br)cc12 [JKT.734C]
IC50 (CK2A1; [8]): 24 nM | IC50 (CK2A2; [9]): 42 nM | IC50 (IL-6 secretion; Table 8): > 10000 nM | solubility (Aqueous solubility; [10]): > 200 µM

O=c1[nH]c(-c2cc(F)c(O)c(F)c2)nc2c(Br)cc(Br)cc12 [JKT.774A]
IC50 (CK2A1; [8]): 818 nM | IC50 (CK2A2; [9]): 1040 nM | IC50 (IL-6 secretion; Table 8): > 10000 nM | solubility (Aqueous solubility; [10]): 152 µM (≈ 65.5 µg/mL)

COc1ccc2c(c1Br)O/C(=C\c1ccc(O)cc1Br)C2=O [JKT.816A]
IC50 (CK2A1; [2]): 119 nM | IC50 (CK2A2; [3]): 1520 nM | IC50 (IL-6 secretion; Table 11): > 10000 nM | solubility (Aqueous solubility; [4]): < 0.01 µM

O=c1cc(-c2ccc(O)c(O)c2)oc2cc(O)cc(O)c12 [luteolin]
IC50 (NF-κB): < 4000 nM | SAR summary: activity in NF-κB reporter assay and for CK2 kinase inhibition (NF-κB): active | IL1-β-induced IL-6, IL-8, TNF-α, MCP-1 cytokine upregulation [1]: strong suppressive activity

COc1cc(-c2nc3c(Cl)cc(Cl)cc3c(=O)[nH]2)ccc1O [JKT.810A]
IC50 (CK2A1; [8]): > 5000 nM | IC50 (CK2A2; [9]): > 5000 nM | IC50 (IL-6 secretion; Table 8): > 10000 nM | solubility (Aqueous solubility; [10]): < 0.01 µM

O=C1/C(=C/c2cccc(O)c2)Oc2c(Br)cc(Br)cc21 [JKT.631A]
IC50 (CK2A1; [11]): > 5000 nM | IC50 (CK2A2; [12]): > 5000 nM | IC50 (IL-6 secretion; Table 10): > 10000 nM | solubility (Aqueous solubility; Table 10, read-out: Solubility): 22.6 µM (≈ 8.95 µg/mL)

O=C1/C(=C/c2ccc(O)c(C(F)(F)F)c2)Oc2c(Br)cc(Br)cc21 [JKT.635A]
IC50 (CK2A1; [11]): 531 nM | IC50 (CK2A2; [12]): 213 nM | IC50 (IL-6 secretion; Table 10): 1800 nM | solubility (Aqueous solubility; Table 10, read-out: Solubility): 22 µM (≈ 10.2 µg/mL)

COc1c(Br)cc2c(c1Br)O/C(=C\c1ccc(O)cc1Cl)C2=O [JKT.762A]
IC50 (CK2A1; [2]): > 5000 nM | IC50 (CK2A2; [3]): > 5000 nM | IC50 (IL-6 secretion; Table 11): 4400 nM | solubility (Aqueous solubility; [4]): 58.6 µM (≈ 27 µg/mL)

COc1cc(/C=C2\Oc3c(Br)cc(Br)cc3C2=O)ccc1O [JKT.630A]
IC50 (CK2A1; [11]): 211 nM | IC50 (CK2A2; [12]): 274 nM | IC50 (IL-6 secretion; Table 10): 9800 nM | solubility (Aqueous solubility; Table 10, read-out: Solubility): 3 µM (≈ 1.28 µg/mL)

O=c1[nH]c(-c2ccc(O)c(Cl)c2)nc2c(Br)cc(Br)cc12 [JKT.772A]
IC50 (CK2A1; [8]): 23 nM | IC50 (CK2A2; [9]): 72 nM | IC50 (IL-6 secretion; Table 8): 11000 nM | solubility (Aqueous solubility; [10]): < 0.01 µM
